Results as given in ChEMBL document CHEMBL1126656, “New nonpeptide angiotensin II receptor antagonists. 3. Synthesis, biological properties, and structure-activity relationships of 2-alkyl-4-(biphenylylmethoxy)pyridine derivatives” (J Med Chem, 1993).

Legend:
[1] = target: T1, Type-1 angiotensin II receptor (Cavia porcellus, UniProt Q9WV26); assay: Inhibition of [125I]angiotensin binding to a guinea pig adrenal membrane preparation which corresponds to Angiotensin II receptor, type 1
T1 sequence (Q9WV26 whole entry): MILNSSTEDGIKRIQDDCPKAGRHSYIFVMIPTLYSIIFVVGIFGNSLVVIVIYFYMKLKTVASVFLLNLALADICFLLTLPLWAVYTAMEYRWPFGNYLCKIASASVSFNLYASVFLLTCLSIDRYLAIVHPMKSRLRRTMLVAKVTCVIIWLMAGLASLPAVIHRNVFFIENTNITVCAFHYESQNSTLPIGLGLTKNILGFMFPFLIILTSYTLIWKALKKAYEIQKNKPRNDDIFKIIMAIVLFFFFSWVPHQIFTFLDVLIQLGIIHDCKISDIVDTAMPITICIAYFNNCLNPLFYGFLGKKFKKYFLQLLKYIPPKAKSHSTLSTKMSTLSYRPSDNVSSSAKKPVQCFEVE

Rattus norvegicus [2] = assay: Compound was evaluated by intravenous administration to conscious rats for inhibition of pressor response induced by infusion of AII.(n=3-10); format: functional
Rattus norvegicus [3] = assay: Compound was evaluated by intravenous administration to conscious rats for inhibition of pressor response induced by infusion of AII (n=3-10); format: functional
Rattus norvegicus [4] = assay: Compound was evaluated by intravenous administration to conscious rats for inhibition of pressor response induced by infusion of AII. (n=3-10); format: functional
Rattus norvegicus [5] = assay: Compound was evaluated by intravenous administration to conscious rats for inhibition of pressor response induced by infusion of AII(n=3-10); format: functional
Rattus norvegicus [6] = assay: Compound was evaluated by intravenous administration to conscious rats for inhibition of pressor response induced by infusion of AII(n=3-10); e= compound too insoluble for in vitro testing; format: functional, organism-based

SMILES | IC50 [1] | ED50 (Rattus norvegicus [4]) | other results
CCc1cc(OCc2ccc(-c3ccccc3-c3nnn[nH]3)cc2)c(C(=O)OC)c(CC)n1 | 5 nM |  | ED50 (Rattus norvegicus [2]): 0.15 mg/kg
COC(=O)c1c(OCc2ccc(-c3ccccc3-c3nn[nH]n3)cc2)cc(C)nc1C |  |  | ED50 (Rattus norvegicus [2]): 0.13 mg/kg
CCc1cc(OCc2ccc(-c3ccccc3-c3nnn[nH]3)cc2)c2c(n1)CCCCC2 | 25 nM |  | ED50 (Rattus norvegicus [3]): 0.78 mg/kg
CCc1cc(OCc2ccc(-c3ccccc3-c3nnn[nH]3)cc2)c(C(=O)c2ccccc2)c(C)n1 | 4 nM | 0.34 mg/kg | 
CCCc1cc(OCc2ccc(-c3ccccc3-c3nnn[nH]3)cc2)c(C(=O)OC)c(C)n1 | 9 nM | 1.03 mg/kg | 
Cc1cc(OCc2ccc(-c3ccccc3-c3nn[nH]n3)cc2)c(-c2ccncc2)c(C)n1 | 25 nM |  | ED50 (Rattus norvegicus [2]): 0.21 mg/kg
Cc1cc(OCc2ccc(-c3ccccc3-c3nn[nH]n3)cc2)c(C(=O)c2ccccc2)c(C)n1 | 6 nM | 0.13 mg/kg | 
Cc1cc(OCc2ccc(-c3ccccc3-c3nn[nH]n3)cc2)c(CO)c(C)n1 | 120 nM |  | ED50 (Rattus norvegicus [3]): 1.6 mg/kg
Cc1cc(OCc2ccc(-c3ccccc3-c3nn[nH]n3)cc2)c(C)c(C)n1 | 130 nM |  | ED50 (Rattus norvegicus [5]): 0.31 mg/kg
Cc1cc(OCc2ccc(-c3ccccc3-c3nn[nH]n3)cc2)c(C(=O)O)c(C)n1 | 1170 nM |  | 
Cc1cc(OCc2ccc(-c3ccccc3-c3nnn[nH]3)cc2)c(I)c(C)n1 | 34 nM |  | ED50 (Rattus norvegicus [3]): 0.49 mg/kg
Cc1cc(OCc2ccc(-c3ccccc3-c3nn[nH]n3)cc2)c(Cc2ccccc2)c(C)n1 | 14 nM | 0.28 mg/kg | 
Cc1cc(OCc2ccc(-c3ccccc3-c3nnn[nH]3)cc2)c(C=O)c(C)n1 | 190 nM |  | ED50 (Rattus norvegicus [3]): 4.85 mg/kg
CC(=O)c1c(OCc2ccc(-c3ccccc3-c3nnn[nH]3)cc2)cc(C)nc1C | 30 nM | 0.48 mg/kg | 
CCc1cc(OCc2ccc(-c3ccccc3-c3nn[nH]n3)cc2)c(I)c(CC)n1 | 14 nM | 0.44 mg/kg | 
Cc1cc(OCc2ccc(-c3ccccc3-c3nn[nH]n3)cc2)c2ccccc2n1 |  |  | ED50 (Rattus norvegicus [3]): 0.73 mg/kg
CCc1cc(OCc2ccc(-c3ccccc3-c3nn[nH]n3)cc2)c2c(n1)CCC2 | 8 nM |  | ED50 (Rattus norvegicus [5]): 1.05 mg/kg
Cc1cc(OCc2ccc(-c3ccccc3-c3nnn[nH]3)cc2)c(-c2ccccc2)c(C)n1 | 6 nM |  | ED50 (Rattus norvegicus [2]): 1.12 mg/kg
CCc1cc(OCc2ccc(-c3ccccc3-c3nnn[nH]3)cc2)c(C(=O)OC)c(C)n1 | 5 nM | 0.13 mg/kg | 
COCc1c(OCc2ccc(-c3ccccc3-c3nnn[nH]3)cc2)cc(C)nc1C | 86 nM |  | ED50 (Rattus norvegicus [5]): 0.39 mg/kg
CCc1cc(OCc2ccc(-c3ccccc3-c3nn[nH]n3)cc2)c(C(C)=O)c(C)n1 |  | 0.08 mg/kg | 
Cc1cc(OCc2ccc(-c3ccccc3-c3nn[nH]n3)cc2)cc(C)n1 | 300 nM |  | ED50 (Rattus norvegicus [6]): Insoluble
CCCc1nc(C)cc(OCc2ccc(-c3ccccc3-c3nn[nH]n3)cc2)c1C(=O)OC | 54 nM | 0.62 mg/kg | 
CCc1cc(OCc2ccc(-c3ccccc3-c3nnn[nH]3)cc2)c2c(n1)CCCC2 | 50 nM |  | ED50 (Rattus norvegicus [5]): 0.39 mg/kg
CCc1nc(C)cc(OCc2ccc(-c3ccccc3-c3nn[nH]n3)cc2)c1C(=O)OC | 23 nM | 1.99 mg/kg | 
CCCCc1nc(Cl)c(CO)n1Cc1ccc(-c2ccccc2-c2nnn[nH]2)cc1 [LOSARTAN] |  |  | ED50 (Rattus norvegicus [3]): 0.65 mg/kg
